Values quoted from earlier work, collected in patent publication US11744878B2 (priority 2020, dated 2023).
Where no end group is shown, it is not given here.

Legend:
[1] = system: COVID-19; details: most critically ill patients with COVID-19; cited from earlier work
[2] = system: SARS coronavirus; details: cited from earlier work
[3] = system: pancreas; details: cited from earlier work
[4] = in vivo; cited from earlier work

CC[C@H](C)[C@H](NC(=O)[C@H](CO)NC(=O)[C@H](CC(N)=O)NC(=O)[C@H](CC(C)C)NC(=O)[C@H](Cc1ccc(O)cc1)NC(=O)[C@H](CCCCN)NC(=O)[C@H](CCCCN)NC(=O)[C@@H](NC(=O)[C@H](C)NC(=O)[C@H](CCSC)NC(=O)[C@H](CCC(N)=O)NC(=O)[C@H](CCCCN)NC(=O)[C@H](CCCNC(=N)N)NC(=O)[C@H](CC(C)C)NC(=O)[C@H](CCCNC(=N)N)NC(=O)[C@@H](NC(=O)[C@H](Cc1ccc(O)cc1)NC(=O)[C@H](CC(N)=O)NC(=O)[C@H](CC(=O)O)NC(=O)[C@@H](NC(=O)[C@H](Cc1ccccc1)NC(=O)[C@@H](NC(=O)[C@H](C)NC(=O)[C@H](CC(=O)O)NC(=O)[C@H](CO)NC(=O)[C@@H](N)Cc1c[nH]cn1)C(C)C)[C@@H](C)O)[C@@H](C)O)C(C)C)C(=O)N[C@@H](CC(C)C)C(=O)N[C@@H](CC(N)=O)C(N)=O [RLF-100, aviptadil]
recovery from respiratory failure [1]: rapid recovery from respiratory failure
replication of the SARS coronavirus [2]: blocked replication

secretin (HSDGTFTSELSRLRDSARLQRLLQGLV; not fully specified (C-terminus); ends and bridges not checked; UniProt P63298 33-59, looked up)
pancreatic duct diameter ([3]; in vivo): increases the pancreatic duct diameter
sphincter of Oddi ([3]; in vivo): causes sphincter of Oddi relaxation
volume and bicarbonate content of pancreatic juice ([3]; primary action): increase the volume and bicarbonate content
crossing of the blood-brain barrier [4]: rapidly crosses the blood-brain barrier
distribution in the body [4]: highly and rapidly distributed

synthetic porcine secretin: new synthetic porcine secretin, manufactured by ChiRhoClin, Inc. (HSDGTFTSELSRLRDSARLQRLLQGLV; not fully specified (C-terminus); ends and bridges not checked; UniProt P63298 33-59, looked up)
effectiveness as a pancreatic secretagogue ([3]; compared with secretin extracted from porcine duodenum): equally effective
